Results as given in patent publication US9487489B2, “Halogen-substituted pyrazole derivatives as pest-control agents” (BAYER CROPSCIENCE AKTIENGESELLSCHAFT, priority 2013, dated 2016).

Columns and labels:
[1] = test system: cattle ticks (Boophilus microplus) Parkhurst strain, SP-resistant; experiment: Boophilus microplus dip test (BOOPMI Dip); format: in vivo; details: application rate 100 ppm, assessed after 7 days
Protocol: B. Boophilus microplus-dip Test (BOOPMI Dip)
Test animals: cattle ticks (Boophilus microplus) Parkhurst strain, SP-resistant
Solvent: dimethyl sulphoxide
10 mg of active compound are dissolved in 0.5 ml of dimethyl sulphoxide. For the purpose of preparing a suitable formulation, the active compound solution is diluted with water to the concentration desired in each case.
This active compound preparation is pipetted into tubes. 8-10 adult engorged female cattle ticks (Boophilus microplus) are transferred into a further tube with holes. The tube is immersed into the active compound formulation, and all ticks are completely wetted. After the liquid has run out, the ticks are transferred on filter discs into plastic dishes and stored in a climate-controlled room.
The activity is assessed after 7 days by laying of fertile eggs. Eggs whose fertility is not visible from the outside are stored in a climate-controlled cabinet until the larvae hatch after about 42 days. An efficacy of 100% means that none of the ticks has laid any fertile eggs; 0% means that all eggs are fertile.

[2] = test system: engorged adult female cattle ticks (Boophilus microplus); experiment: Boophilus microplus injection test (BOOPMI Inj); format: in vivo; details: application rate 20 μg/animal; injection into abdomen; assessed after 7 days
How it was run: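 DMSO solution of compound (1 μl) injected into the abdomen of 5 engorged adult female ticks, which are then held in a climate-controlled room. After 7 days, efficacy is scored from laying of fertile eggs, with unclear eggs kept until larval hatch (~42 days); 100% means no fertile eggs, 0% all fertile.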

[3] = test system: adult cat fleas (Ctenocephalides felis); experiment: Ctenocephalides felis oral test (CTECFE); format: in vivo; details: application rate 100 ppm in citrated cattle blood; after 2 days
How it was run: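 About 20 unfed adult cat fleas fed through parafilm membrane on citrated cattle blood containing compound (DMSO stock diluted in blood to test concentration). Kill % scored after 2 days (100% = all fleas dead).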

[4] = test system: L1 larvae of the Australian sheep blowfly (Lucilia cuprina); experiment: Lucilia cuprina test (LUCICU); format: in vivo; details: application rate 100 ppm; after 2 days
How it was run: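 About 20 L1 larvae placed in a vessel with minced horsemeat plus compound (DMSO concentrate diluted with water to the desired concentration). Kill in % scored after 2 days, 100% meaning all larvae dead.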

[5] = test system: adult houseflies (Musca domestica); experiment: Musca domestica test (MUSCDO); format: in vivo; details: application rate 100 ppm; after 2 days
How it was run: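 Compound dissolved in DMSO and diluted with water to the test concentration, applied with sugar solution on a sponge; 10 adult houseflies per vessel. Mortality scored after 2 days as % kill (100% all dead, 0% none).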

[6] = test system: green peach aphid (Myzus persicae); experiment: Myzus persicae spray test (MYZUPE); format: in vivo; details: Chinese cabbage leaf discs, after 6 days
How it was run: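 Chinese cabbage leaf discs infested with all aphid stages sprayed with compound in acetone/DMF with alkylaryl polyglycol ether emulsifier in water. Efficacy (% aphids killed; 100% all dead, 0% none) scored after 6 days.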

[7] = test system: larvae of the mustard beetle (Phaedon cochleariae); experiment: Phaedon cochleariae spray test (PHAECO); format: in vivo; details: Chinese cabbage leaf discs, after 7 days
How it was run: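 Compound dissolved in acetone/dimethylformamide with alkylaryl polyglycol ether emulsifier, made up in water containing 1000 ppm emulsifier, then diluted to test concentrations and sprayed against mustard beetle larvae. Efficacy (% larvae killed) scored after 7 days.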

[8] = test system: caterpillars of the armyworm (Spodoptera frugiperda); experiment: Spodoptera frugiperda spray test (SPODFR); format: in vivo; details: maize leaf discs, after 7 days
How it was run: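 Maize leaf discs sprayed with compound in acetone/DMF with alkylaryl polyglycol ether emulsifier (1000 ppm) in water, dried, then infested with armyworm caterpillars. Mortality (%) scored after 7 days; 100% = all caterpillars killed, 0% = none killed.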

[9] = test system: greenhouse red spider mite (Tetranychus urticae); experiment: Tetranychus urticae spray test, OP-resistant (TETRUR); format: in vivo; details: bean leaf discs, after 6 days
How it was run: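 Bean leaf discs carrying all stages of OP-resistant Tetranychus urticae were sprayed with compound formulated in acetone/dimethylformamide and diluted in water with 1000 ppm alkylaryl polyglycol ether emulsifier. Mortality (% efficacy, 100% = all mites killed) scored after 6 days.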

[10] = test system: adult cat fleas (Ctenocephalides felis); experiment: Ctenocephalides felis in vitro contact test with adult cat fleas (T1); details: after 48 h
How it was run: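 Test compound was dissolved in acetone p.a. (9 mg per 1 ml) and diluted as needed. 250 μl was spread evenly over the inner walls and floor of a 25 ml test tube by rotating on an orbital shaker for 2 h at 30 rpm. Once the solvent evaporated, 5-10 adult Ctenocephalides felis were added. Tubes were capped with a perforated plastic lid and kept horizontal at room temperature and ambient humidity.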

[11] = test system: adult dog ticks (Rhipicephalus sanguineus); experiment: Rhipicephalus sanguineus in vitro contact test with adult brown dog ticks (T2); details: after 48 h
How it was run: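 Acetone solutions coated onto test tube walls and floor, giving 5 μg/cm^2 at 900 ppm. Five to ten adult ticks held per tube in the dark at room temperature for 48 h, then heated at 45-50° C for up to 5 min; efficacy is the percentage of dead or moribund ticks unable to climb away.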

[12] = logP determination by HPLC on a reversed-phase column (C18), EEC Directive 79/831 Annex V.A8; format: physicochemical; details: HPLC on reversed-phase column (C18), acetonitrile/water with formic acid, EEC Directive 79/831 Annex V.A8
How it was run: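 Retention on a C18 reversed-phase column (Zorbax Eclipse Plus, 1.8 micron) was used, eluting with acetonitrile/water, each containing formic acid. The gradient ran from 10% to 95% acetonitrile over 4.25 min, then held 1.25 min, at 55° C and 2.0 ml/min, with MS detection.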

Cn1cc(NC(=O)c2cc(-c3cnn(-c4c(C(F)(F)F)c(C(F)(F)C(F)(F)F)nn4C)c3)ccc2Cl)cn1 [Ic-166]
efficacy (laying of fertile eggs) [1]: 100% | efficacy (laying of fertile eggs) [2]: 100% | efficacy (kill in %) [3]: 100% | efficacy (kill in %) [4]: 100% | efficacy (kill in %) [5]: 100% | efficacy in % ([6]; application rate 500 g/ha): 90% | efficacy in % ([7]; application rate 500 g/ha): 100% | efficacy in % ([8]; application rate 500 g/ha): 100% | efficacy in % ([9]; application rate 500 g/ha): 100% | efficacy (dead or moribund fleas) ([10]; application rate 1 μg/cm^2): 100% | efficacy (dead or moribund fleas) ([10]; application rate 5 μg/cm^2): 100% | efficacy (dead or moribund ticks) ([11]; application rate 1 μg/cm^2): 100% | efficacy (dead or moribund ticks) ([11]; application rate 5 μg/cm^2): 100%

Cn1nc(C(F)(F)C(F)(F)F)c(C(F)(F)F)c1-n1cc(-c2ccc([N+](=O)[O-])c(C(=O)NC3(C#N)CC3)c2)cn1 [Ic-65]
logP [12]: 3.48 | efficacy (laying of fertile eggs) [1]: 100% | efficacy (laying of fertile eggs) [2]: 100% | efficacy (kill in %) [3]: 100% | efficacy (kill in %) [4]: 100% | efficacy (kill in %) [5]: 100% | efficacy in % ([6]; application rate 100 g/ha): 90% | efficacy in % ([7]; application rate 100 g/ha): 100% | efficacy in % ([8]; application rate 100 g/ha): 83% | efficacy in % ([9]; application rate 100 g/ha): 100% | efficacy (dead or moribund fleas) ([10]; application rate 1 μg/cm^2): 100% | efficacy (dead or moribund fleas) ([10]; application rate 5 μg/cm^2): 100%

Cn1nc(C(F)(F)C(F)(F)F)c(C(F)(F)F)c1-n1cc(-c2ccc(Cl)c(C(=O)N[C@@H]3CCOC3)c2)cn1 [Ic-164]
efficacy (laying of fertile eggs) [1]: 100% | efficacy (laying of fertile eggs) [2]: 100% | efficacy (kill in %) [3]: 100% | efficacy (kill in %) [4]: 100% | efficacy (kill in %) [5]: 90% | efficacy in % ([6]; application rate 500 g/ha): 90% | efficacy in % ([7]; application rate 500 g/ha): 100% | efficacy in % ([8]; application rate 500 g/ha): 100% | efficacy in % ([9]; application rate 500 g/ha): 100% | efficacy (dead or moribund fleas) ([10]; application rate 1 μg/cm^2): 100% | efficacy (dead or moribund fleas) ([10]; application rate 5 μg/cm^2): 100% | efficacy (dead or moribund ticks) ([11]; application rate 1 μg/cm^2): 100% | efficacy (dead or moribund ticks) ([11]; application rate 5 μg/cm^2): 100%

Cn1nc(C(F)(F)C(F)(F)F)c(C(F)(F)F)c1-n1cc(-c2ccc(Cl)c(C(=O)NCC3CC3)c2)cn1 [Ic-153]
efficacy (laying of fertile eggs) [1]: 100% | efficacy (laying of fertile eggs) [2]: 100% | efficacy (kill in %) [3]: 100% | efficacy (kill in %) [4]: 100% | efficacy (kill in %) [5]: 100% | efficacy in % ([6]; application rate 500 g/ha): 90% | efficacy in % ([7]; application rate 500 g/ha): 100% | efficacy in % ([8]; application rate 500 g/ha): 100% | efficacy in % ([9]; application rate 500 g/ha): 100% | efficacy (dead or moribund fleas) ([10]; application rate 1 μg/cm^2): 100% | efficacy (dead or moribund fleas) ([10]; application rate 5 μg/cm^2): 100% | efficacy (dead or moribund ticks) ([11]; application rate 1 μg/cm^2): 80% | efficacy (dead or moribund ticks) ([11]; application rate 5 μg/cm^2): 80%

Cn1nc(C(F)(F)C(F)(F)F)c(C(F)(F)F)c1-n1cc(-c2ccc(Cl)c(C(=O)NCCF)c2)cn1 [Ic-77]
logP [12]: 3.67 | efficacy (laying of fertile eggs) [1]: 100% | efficacy (laying of fertile eggs) [2]: 100% | efficacy (kill in %) [3]: 100% | efficacy (kill in %) [4]: 100% | efficacy (kill in %) [5]: 100% | efficacy in % ([6]; application rate 100 g/ha): 100% | efficacy in % ([8]; application rate 100 g/ha): 100% | efficacy in % ([9]; application rate 100 g/ha): 100% | efficacy (dead or moribund fleas) ([10]; application rate 1 μg/cm^2): 100% | efficacy (dead or moribund fleas) ([10]; application rate 5 μg/cm^2): 100% | efficacy (dead or moribund ticks) ([11]; application rate 1 μg/cm^2): 100% | efficacy (dead or moribund ticks) ([11]; application rate 5 μg/cm^2): 100%

Cn1nc(C(F)(F)C(F)(F)F)c(C(F)(F)F)c1-n1cc(-c2ccc(Cl)c(C(=O)NCC#N)c2)cn1 [Ic-147]
efficacy (laying of fertile eggs) [1]: 100% | efficacy (laying of fertile eggs) [2]: 100% | efficacy (kill in %) [3]: 100% | efficacy (kill in %) [4]: 100% | efficacy (kill in %) [5]: 100% | efficacy in % ([6]; application rate 100 g/ha): 90% | efficacy in % ([6]; application rate 500 g/ha): 100% | efficacy in % ([7]; application rate 500 g/ha): 100% | efficacy in % ([8]; application rate 500 g/ha): 100% | efficacy in % ([9]; application rate 500 g/ha): 100% | efficacy (dead or moribund fleas) ([10]; application rate 1 μg/cm^2): 100% | efficacy (dead or moribund fleas) ([10]; application rate 5 μg/cm^2): 100% | efficacy (dead or moribund ticks) ([11]; application rate 1 μg/cm^2): 80%

CNC(=O)C1(N(C)C(=O)c2cc(-c3cnn(-c4c(C(F)(F)F)c(C(F)(F)C(F)(F)F)nn4C)c3)ccc2Cl)CC1 [Ic-97]
logP [12]: 3.58 | efficacy (laying of fertile eggs) [1]: 90% | efficacy (laying of fertile eggs) [2]: 100% | efficacy (kill in %) [3]: 100% | efficacy (kill in %) [4]: 100% | efficacy (kill in %) [5]: 100% | efficacy in % ([6]; application rate 500 g/ha): 100% | efficacy in % ([7]; application rate 500 g/ha): 100% | efficacy in % ([8]; application rate 500 g/ha): 100% | efficacy in % ([9]; application rate 500 g/ha): 100% | efficacy (dead or moribund fleas) ([10]; application rate 1 μg/cm^2): 100% | efficacy (dead or moribund fleas) ([10]; application rate 5 μg/cm^2): 100%
